Laboratory results as given in patent US20170254801A1, “METHOD FOR IDENTIFYING SUBSTANCES WHICH PRIME A DEFENSE RESPONSE” (RHEINISCH-WESTFÄLISCHE TECHNISCHE HOCHSCHULE AACHEN (RWTH), priority 2014, published 2017).

Legend:
[1] = system: Petroselinum crispum cells; experiment: Oxygen transfer rate (RAMOS) in suspension cells treated with substance and then with the elicitor Pep13; type: cell-based; details: 200 μM 72 hours after inoculation; for oxygen transfer rate in comparison to untreated cells and to cells only treated with Pep13 (specificity): 1 nM Pep13 96 hours after inoculation, FIG. 2
Experimental: (§1) 12.5 ml of a suspension of Petroselinum crispurn cells were inoculated in 250 ml shaking flasks containing 37.5 ml of modified Gamborg B5 medium and cultured at a temperature of 25° C. at a shaking frequency of 180 U/min and a shaking diameter of 5 cm in a RAMOS device (HiTec Zang, Herzogenrath). During the culture the oxygen partial pressure of the gas phase in the head space of the flask was measured and the oxygen transfer rate was calculated therefrom.
In yet another experiment, the cells were treated with 200 μM salicylic acid 72 hours after inoculation and with Pep13 96 hours after inoculation.
In parallel experiments, the cells were either treated with 200 μM salicylic acid, 200 μM 4-chlorsalicylic acid or with 200 μM 3-hydroxy benzoic acid 72 hours after inoculation and then in all experiments 1 nM Pep13 was added 96 hours after inoculation.

[2] = system: Petroselinum crispum cells; experiment: Oxygen transfer rate (RAMOS) in suspension cells after treatment with a defense priming substance or elicitor alone; type: cell-based; details: 200 μM added 72 hours after inoculation; FIG. 1b
Source text: In the determination of the respiration activity with RAMOS, a measuring cycle is continuously repeated during fermentation. This measuring cycle comprises a measuring phase and a rinsing phase. During the rinsing phase, air is flushed through the measuring flask at a specific flow rate. At the beginning of the measuring phase, inlet and outlet valves of the measuring flask are closed. Respiration of the cells leads to a decrease in the oxygen partial pressure and to an increase in the carbon dioxide partial pressure in the gas headspace of the measuring flask. These partial pressures are monitored by an oxygen sensor and a differential pressure sensor. In addition, a carbon dioxide sensor may be used. Assuming linear changes in the measuring phase, a computer calculates the oxygen transfer rate and the carbon dioxide transfer rate according to the formulas provided above. […]
as §1, with “therefrom. […]” for “therefrom.”

| SMILES | oxygen transfer rate in comparison to untreated cells and to cells only treated with Pep13 (specificity) [1] | duration of the increase in oxygen transfer rate [2] | oxygen transfer rate in comparison to the untreated cells [2] | oxygen transfer rate compared with treatment with Pep13 alone ([1]; Pep13 96 hours after inoculation, FIG. 1d) |
| --- | --- | --- | --- | --- |
| O=C(O)c1cccc(O)c1 [3-hydroxy benzoic acid] | same increase in the oxygen transfer rate as the addition of Pep13 alone | – | – | – |
| O=C(O)c1ccccc1O [salicylic acid] | increase in the oxygen transfer rate | about 48 hours | increase in the oxygen transfer rate | stronger increase in the oxygen transfer rate than the treatment with Pep13 alone |
| O=C(O)c1ccc(Cl)cc1O [4-chlorsalicylic acid] | increase in the oxygen transfer rate | – | – | – |
